Source: ChEMBL document CHEMBL1955859, “Molecular modeling study of cyclic pentapeptide CXCR4 antagonists: new insight into CXCR4-FC131 interactions” (Bioorg Med Chem Lett, 2012)

Target: C-X-C chemokine receptor type 4 (Homo sapiens, UniProt P61073)
Experiment: Antagonist activity at CXCR4
Assay type: functional

Chain of C-X-C chemokine receptor type 4 (P61073 whole entry): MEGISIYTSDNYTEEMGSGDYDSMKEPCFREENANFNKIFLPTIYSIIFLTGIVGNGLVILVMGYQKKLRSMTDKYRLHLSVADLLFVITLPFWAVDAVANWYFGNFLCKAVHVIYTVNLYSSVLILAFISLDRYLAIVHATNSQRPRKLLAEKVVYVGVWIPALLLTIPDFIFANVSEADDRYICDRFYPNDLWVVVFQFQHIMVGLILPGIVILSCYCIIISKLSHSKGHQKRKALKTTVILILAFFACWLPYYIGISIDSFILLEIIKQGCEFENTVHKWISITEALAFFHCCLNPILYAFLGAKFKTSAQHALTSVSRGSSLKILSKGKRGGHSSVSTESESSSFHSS

With `NC(N)=NCCC[C@@H]1NC(=O)[C@H](CCCN=C(N)N)NC(=O)[C@@H](Cc2ccccc2)NC(=O)CNC(=O)[C@H](Cc2ccc3ccccc3c2)NC1=O` the IC50 was 51 nM.
